# Measurements taken from the supplement of paper PMC11061612.
# Assays:
# Test in all cases: Bliss excess, mean over the matrix (fraction); higher = more synergy
# [1] = test system: CFPAC-1 (Pancreatic Carcinoma)
# Summary of the method: (§1)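 Bliss excess equals the observed combination effect minus the expected value EA + EB − EA·EB, where EA and EB are the effects of each agent alone. Combination Emax is the second-highest inhibition within the matrix. Inhibition was scaled from CellTiter-Glo 2.0 luminescence, with 0 set by vehicle wells and 1 by blank wells, after 72 hours of two-drug dosing of cells plated in 1536-well plates.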
# [2] = test system: NCI-H2595 (Mesothelioma)
# Summary of the method: as §1
# [3] = test system: KARPAS-620 (Plasma Cell Myeloma)
# Summary of the method: as §1
# [4] = test system: LU-99A (Non-Small Cell Lung Carcinoma)
# Summary of the method: as §1
# [5] = test system: MDA-MB-231 (Breast Carcinoma)
# Summary of the method: as §1
# [6] = test system: DSH1 (Bladder Carcinoma)
# Summary of the method: as §1
# [7] = test system: NCI-H1694 (Small Cell Lung Carcinoma)
# Summary of the method: as §1
# [8] = test system: KM-H2 (Hodgkin's Lymphoma)
# Summary of the method: as §1
# [9] = test system: TE-5 (Esophageal Squamous Cell Carcinoma)
# Summary of the method: as §1
# [10] = test system: RH-1 (Ewing's Sarcoma)
# Summary of the method: as §1
# [11] = test system: ES7 (Ewing's Sarcoma)
# Summary of the method: as §1
# [12] = test system: COR-L23 (Non-Small Cell Lung Carcinoma)
# Summary of the method: as §1
# [13] = test system: SK-N-FI (Neuroblastoma)
# Summary of the method: as §1
# [14] = test system: SNU-C5 (Colorectal Carcinoma)
# Summary of the method: as §1
# [15] = test system: SW1783 (Low Grade Glioma)
# Summary of the method: as §1
# [16] = test system: SW780 (Bladder Carcinoma)
# Summary of the method: as §1
# [17] = test system: C3A (Hepatocellular Carcinoma)
# Summary of the method: as §1
# [18] = test system: 697 (B-Lymphoblastic Leukemia)
# Summary of the method: as §1
# [19] = test system: JiyoyeP-2003 (Burkitt's Lymphoma)
# Summary of the method: as §1
# [20] = test system: KARPAS-1106P (B-Cell Non-Hodgkin's Lymphoma)
# Summary of the method: as §1
Structure (SMILES),Bliss excess [1],Bliss excess [2],Bliss excess [3],Bliss excess [4],Bliss excess [5],Bliss excess [6],Bliss excess [7],Bliss excess [8],Bliss excess [9],Bliss excess [10],Bliss excess [11],Bliss excess [12],Bliss excess [13],Bliss excess [14],Bliss excess [15],Bliss excess [16],Bliss excess [17],Bliss excess [18],Bliss excess [19],Bliss excess [20]
"CC1(C)CCC(CN2CCN(c3ccc(C(=O)NS(=O)(=O)c4ccc(NCC5CCOCC5)c([N+](=O)[O-])c4)c(Oc4cnc5[nH]ccc5c4)c3)CC2)=C(c2ccc(Cl)cc2)C1 [Venetoclax] + COc1cc(Nc2ncc3c(n2)-c2ccc(Cl)cc2C(c2c(F)cccc2OC)=NC3)ccc1C(=O)O [Alisertib] (first compound max 1 µM, 7x7, partner max 10 µM)",-0.0475,-0.0543,0.284,-0.0244,0.0102,0.128,0.256,0.145,-0.105,-0.0065,0.0686,-0.0201,0.0916,-0.0682,-0.0178,-0.0455,-0.0617,0.0193,-0.0161,0.103
"CC1(C)CCC(CN2CCN(c3ccc(C(=O)NS(=O)(=O)c4ccc(NCC5CCOCC5)c([N+](=O)[O-])c4)c(Oc4cnc5[nH]ccc5c4)c3)CC2)=C(c2ccc(Cl)cc2)C1 [Venetoclax] + C[C@@H]1COCCN1C2=NC(=NC(=C2)C3(CC3)[S@](=N)(=O)C)C4=C5C=CNC5=NC=C4 [AZD6738] (first compound max 1 µM, 7x7, partner max 10 µM)",0.015,0.0027,0.0235,-0.0278,-0.0312,-0.0662,0.0443,0.0384,-0.0623,-0.0158,0.0245,-0.0392,0.0009,-0.0289,-0.0555,-0.0299,-0.0503,0.0052,0.0139,-0.0213
"CC1(C)CCC(CN2CCN(c3ccc(C(=O)NS(=O)(=O)c4ccc(NCC5CCOCC5)c([N+](=O)[O-])c4)c(Oc4cnc5[nH]ccc5c4)c3)CC2)=C(c2ccc(Cl)cc2)C1 [Venetoclax] + C[C@@H](Nc1cc(F)cc(F)c1)c1cc(C(=O)N(C)C)cc2c(=O)cc(N3CCOCC3)oc12 [AZD8186] (first compound max 1 µM, 7x7, partner max 3 µM)",0.0034,-0.0111,-0.0022,-0.0412,-0.0066,0.002,0.0808,-0.0151,-0.0327,-0.0429,0.135,-0.0328,-0.0178,-0.0308,-0.0258,-0.0135,-0.0803,-0.0458,0.0246,0.0046
"CC1(C)CCC(CN2CCN(c3ccc(C(=O)NS(=O)(=O)c4ccc(NCC5CCOCC5)c([N+](=O)[O-])c4)c(Oc4cnc5[nH]ccc5c4)c3)CC2)=C(c2ccc(Cl)cc2)C1 [Venetoclax] + Cc1cc2ncnn2cc1Nc1ncc2c(n1)n(C1CCOCC1)c(=O)n2C [AZD7648] (first compound max 1 µM, 7x7, partner max 10 µM)",-0.0359,-0.0185,0.0454,-0.0437,0.0192,-0.027,-0.0247,-0.0322,-0.0382,0.0029,-0.0735,-0.0351,0.0047,-0.0233,-0.0395,-0.0035,-0.0588,-0.0154,-0.0604,-0.0672
"CC1(C)CCC(CN2CCN(c3ccc(C(=O)NS(=O)(=O)c4ccc(NCC5CCOCC5)c([N+](=O)[O-])c4)c(Oc4cnc5[nH]ccc5c4)c3)CC2)=C(c2ccc(Cl)cc2)C1 [Venetoclax] + Cn1cnc2c(F)c(Nc3ccc(Br)cc3Cl)c(C(=O)NOCCO)cc21 [Selumetinib] (first compound max 1 µM, 7x7, partner max 3 µM)",-0.0142,-0.047,0.16,-0.0484,-0.0277,0.0225,-0.0313,-0.0221,-0.0575,-0.0291,-0.0127,-0.0182,0.0374,-0.0248,-0.0595,-0.0367,-0.017,-0.0001,0.0014,-0.0009
